Like-named read-outs stand apart in the source and are kept apart here. Values belong to the molecule of their own block, whether it stands above or below them.
What was measured:
[1] = logP by HPLC on reversed-phase column (C18), acidic range; assay type: physicochemical; conditions: formic acid in water/acetonitrile
Method: The logP values were determined according to EEC Directive 79/831 Annex V.A8 by HPLC (high-performance liquid chromatography) on a reversed-phase column (C18) using the following methods:
Calibration was carried out using a homologous series of straight-chain alkan-2-ones (having 3 to 16 carbon atoms) with known logP values. The values between successive alkanones are determined by linear regression.

[2] = test system: green peach aphid (Myzus persicae); experiment: Myzus persicae spray test; assay type: in vivo; conditions: foliar, 120 h, read-out: efficacy
Method: Solvent: 78 parts by weight of acetone • • 1.5 parts by weight of dimethylformamide
(§1) Emulsifier: alkylaryl polyglycol ether
(§2) To produce a suitable active compound formulation, 1 part by weight of active compound is dissolved with the specified parts by weight of solvent and made up to the desired concentration with water containing an emulsifier concentration of 1000 ppm. To produce further test concentrations, the formulation is diluted with emulsifier-containing water.
Discs of Chinese cabbage leaves (Brassica pekinensis) infested by all stages of the green peach aphid (Myzus persicae) are sprayed with an active compound formulation of the desired concentration.
(§3) After 5 days, the efficacy in % is determined. 100% means that all the aphids have been killed; 0% means that no aphids have been killed.

[3] = test system: green peach aphids (Myzus persicae); experiment: Myzus persicae oral test; assay type: in vivo; conditions: 120 h, read-out: efficacy
Method: Solvent: 100 parts by weight of acetone
To produce a suitable active compound formulation, 1 part by weight of active compound is dissolved with the stated parts by weight of solvent and made up to the desired concentration with water.
50 μl of the active compound formulation are transferred into microtitre plates and made up to a final volume of 200 μl with 150 μl of IPL41 insect medium (33%+15% sugar). Subsequently, the plates are sealed with parafilm, which a mixed population of green peach aphids (Myzus persicae) within a second microtitre plate is able to puncture and imbibe the solution.
as §3

[4] = test system: larvae of the mustard beetle (Phaedon cochleariae); experiment: Phaedon cochleariae spray test; assay type: in vivo; conditions: foliar, 168 h, read-out: efficacy
Method: (§4) Solvent: 78.0 parts by weight of acetone • • 1.5 parts by weight of dimethylformamide
as §1, §2
Discs of Chinese cabbage leaves (Brassica pekinensis) are sprayed with an active compound formulation of the desired concentration and, after drying, populated with larvae of the mustard beetle (Phaedon cochleariae).
After 7 days, the efficacy in % is determined. 100% means that all the beetle larvae have been killed; 0% means that no beetle larvae have been killed.

[5] = test system: L1 larvae of the Australian sheep blowfly (Lucilia cuprina); experiment: Lucilia cuprina test; assay type: in vivo; conditions: 48 h, read-out: efficacy (kill)
Method: (§5) Solvent: dimethyl sulfoxide
To produce a suitable active compound formulation, 10 mg of active compound are mixed with 0.5 ml of dimethyl sulfoxide, and the concentrate is diluted with water to the desired concentration.
About 20 L1 larvae of the Australian sheep blowfly (Lucilia cuprina) are transferred into a test vessel containing minced horsemeat and the active compound formulation of the desired concentration.
After 2 days, the kill in % is determined. 100% means that all the larvae have been killed; 0% means that no larvae have been killed.

[6] = test system: caterpillars of the fall armyworm (Spodoptera frugiperda); experiment: Spodoptera frugiperda spray test; assay type: in vivo; conditions: foliar, 168 h, read-out: efficacy
Method: as §4, §1, §2
Leaf discs of maize (Zea mays) are sprayed with an active compound formulation of the desired concentration and, after drying, populated with caterpillars of the fall armyworm (Spodoptera frugiperda).
After 7 days, the efficacy in % is determined. 100% means that all the caterpillars have been killed; 0% means that no caterpillar has been killed.

[7] = test system: adult cat fleas (Ctenocephalides felis); experiment: Ctenocephalides felis oral test; assay type: in vivo; conditions: 48 h, read-out: efficacy (kill)
Method: as §5
To produce a suitable active compound formulation, 10 mg of active compound are mixed with 0.5 ml of dimethyl sulfoxide. Dilution with citrated cattle blood gives the desired concentration.
About 20 unfed adult cat fleas (Ctenocephalides felis) are placed into a chamber which is closed at the top and bottom with gauze. A metal cylinder whose bottom end is closed with parafilm is placed onto the chamber. The cylinder contains the blood/active compound formulation, which can be imbibed by the fleas through the parafilm membrane.
After 2 days, the kill in % is determined. 100% means that all of the fleas have been killed; 0% means that none of the fleas have been killed.

[8] = test system: adult cat fleas (Ctenocephalides felis); experiment: Ctenocephalides felis in vitro contact test with adult cat fleas; assay type: in vivo; conditions: application rate 5 μg/cm^2 (=500 g/ha), after 48 h, dead or moribund fleas
Method: For the coating of the test tubes, 9 mg of active compound are first dissolved in 1 ml of acetone p.a. and then diluted to the desired concentration with acetone p.a. 250 μl of the solution are distributed homogeneously on the inner walls and the base of a 25 ml glass tube by turning and rocking on an orbital shaker (rocking rotation at 30 rpm for 2 h). With 900 ppm of active compound solution and internal surface area 44.7 cm^2, given homogeneous distribution, an area-based dose of 5 μg/cm^2 is achieved.
After the solvent has evaporated off, the tubes are populated with 5-10 adult cat fleas (Ctenocephalides felis), sealed with a perforated plastic lid and incubated in a horizontal position at room temperature and ambient humidity. After 48 h, efficacy is determined. To this end, the tubes are stood upright and the fleas are knocked to the base of the tube. Fleas which remain motionless at the base or move in an uncoordinated manner are considered to be dead or moribund.
100% efficacy means that all the fleas were dead or moribund. 0% efficacy means that no fleas were harmed.

[9] = reversed-phase HPLC column (C18)
[10] = 100 g/ha, after 5 days, Chinese cabbage leaf discs
[11] = 100 ppm in citrated cattle blood, after 2 days
[12] = 100 g/ha, after 7 days, Chinese cabbage leaf discs
[13] = 100 g/ha, after 7 days, maize leaf discs

chromatographic logP [1, 9]: 2.54
Compound: CCS(=O)(=O)c1c(-c2nc3cc(C(F)(F)F)cnc3n2C)nc2cc(CC#N)ccn12 [{3-(Ethylsulfonyl)-2-[3-methyl-6-(trifluoromethyl)-3H-imidazo[4,5-b]pyridin-2-yl]imidazo[1,2-a]pyridin-7-yl}acetonitrile]

chromatographic logP [1, 9]: 2.41
Compound: CCS(=O)(=O)c1c(-c2nc3cc(C(F)(F)F)cnc3n2C)nc2cc(C(=O)NNC3CC3)ccn12 [Example I-10, N′-Cyclopropyl-3-(ethylsulfonyl)-2-[3-methyl-6-(trifluoromethyl)-3H-imidazo[4,5-b]pyridin-2-yl]imidazo[1,2-a]pyridine-7-carbohydrazide]
pest or weed control at 100 g/ha [2, 10]: 90%
pest or weed control at 4 ppm ([3]; 4 ppm, after 5 days): 100%

Compound: CCS(=O)(=O)c1c(-c2nc3cc(C(F)(F)F)cnc3n2C)nc2cc(NC(=O)OC3CCC3)ccn12 [Example I-02]
pest or weed control at 100 g/ha ([4]; in Brassica rapa): 67%
pest or weed control at 100 ppm [5]: 100%
pest or weed control at 100 g/ha ([2]; in Brassica rapa): 70%
pest or weed control at 100 g/ha ([6]; in Zea mays): 83%
pest or weed control at 100 ppm [7, 11]: 100%
efficacy [8]: 100%
pest or weed control at 4 ppm [3]: 100%

chromatographic logP [1, 9]: 2.76
Compound: CCOC(=O)c1nc2cc(Br)ccn2c1SCC [Ethyl 7-bromo-3-(ethylsulfanyl)imidazo[1,2-a]pyridine-2-carboxylate]

Compound: CCS(=O)(=O)c1c(-c2nc3cc(C(F)(F)F)cnc3n2C)nc2cc(NC(=O)OCC3CC3)ccn12 [Example I-04]
pest or weed control at 100 g/ha ([4]; in Brassica rapa): 100%
pest or weed control at 100 ppm [5]: 100%
pest or weed control at 100 g/ha ([6]; in Zea mays): 100%
pest or weed control at 100 ppm [7, 11]: 100%

Compound: CCS(=O)(=O)c1c(-c2nc3cc(C(F)(F)F)ncc3n2C)nc2cc(S(=O)(=O)NC3CC3)ccn12 [Example I-23]
pest or weed control at 100 g/ha [2, 10]: 90%

Compound: CCS(=O)(=O)c1c(-c2nc3cc(C(F)(F)F)cnc3n2C)nc2cc(NC(=O)OC3(C)CC3)ccn12 [Example I-08, 1-Methylcyclopropyl-{3-(ethylsulfonyl)-2-[3-methyl-6-(trifluoromethyl)-3H-imidazo[4,5-b]pyridin-2-yl]imidazo[1,2-a]pyridin-7-yl}carbamate]
chromatographic logP [1]: 3.14
pest or weed control at 100 g/ha ([4]; in Brassica rapa): 100%
pest or weed control at 100 ppm [5]: 100%
pest or weed control at 100 g/ha ([6]; in Zea mays): 100%
pest or weed control at 100 ppm [7]: 100%
pest or weed control at 4 ppm [3]: 100%

chromatographic logP [1, 9]: 2.22
Compound: CCOC(=O)c1nc2cc(Br)ccn2c1S(=O)(=O)CC [Ethyl 7-bromo-3-(ethylsulfonyl)imidazo[1,2-a]pyridine-2-carboxylate]

chromatographic logP [1, 9]: 1.52
Compound: CCS(=O)(=O)c1c(C(=O)O)nc2cc(Br)ccn12 [7-Bromo-3-(ethylsulfonyeimidazo[1,2-a]pyridine-2-carboxylic acid]

chromatographic logP [1, 9]: 2.13
Compound: CCS(=O)(=O)c1c(-c2nc3cc(C(F)(F)F)cnc3n2C)nc2cc(N)ccn12 [3-(Ethylsulfonyl)-2-[3-methyl-6-(trifluoromethyl)-3H-imidazo[4,5-b]pyridin-2-yl]imidazo[1,2-a]pyridine-7-amine]

Compound: CCS(=O)(=O)c1c(-c2nc3cc(S(=O)(=O)C(F)(F)F)cnc3n2C)nc2cc(S(=O)(=O)C3CC3)ccn12 [Example I-15]
pest or weed control at 100 g/ha [4, 12]: 100%
pest or weed control at 100 g/ha [2, 10]: 90%
pest or weed control at 100 g/ha [6, 13]: 100%

Compound: CCS(=O)(=O)c1c(-c2nc3cc(C(F)(F)F)cnc3n2C)nc2cc(NC3=CC(=O)OC3)ccn12 [Example I-19]
pest or weed control at 100 g/ha [4, 12]: 100%

Compound: CCS(=O)(=O)c1c(-c2nc3cc(C(F)(F)F)cnc3n2C)nc2cc(/C=C/C3CC3)ccn12 [Example I-14]
pest or weed control at 100 g/ha [4, 12]: 100%
pest or weed control at 100 g/ha [2, 10]: 90%
pest or weed control at 100 g/ha [6, 13]: 100%
pest or weed control at 100 ppm [7, 11]: 98%
pest or weed control at 4 ppm ([3]; 4 ppm, after 5 days): 100%

Compound: CCS(=O)(=O)c1c(-c2nc3cc(C(F)(F)F)cnc3n2C)nc2cc(NC(=O)NC3CC3)ccn12 [Example I-03]
pest or weed control at 100 g/ha [4, 12]: 100%
pest or weed control at 100 ppm ([5]; 100 ppm, after 2 days): 100%
pest or weed control at 100 g/ha [2, 10]: 100%
pest or weed control at 100 ppm [7, 11]: 100%
pest or weed control at 4 ppm ([3]; 4 ppm, after 5 days): 100%

Compound: C=CCOC(=O)Nc1ccn2c(S(=O)(=O)CC)c(-c3nc4cc(C(F)(F)F)cnc4n3C)nc2c1 [Example I-17]
pest or weed control at 100 g/ha ([4]; in Brassica rapa): 100%
pest or weed control at 100 g/ha ([6]; in Zea mays): 100%
pest or weed control at 100 ppm [7, 11]: 100%

Compound: CCS(=O)(=O)c1c(-c2nc3cc(C(F)(F)F)cnc3n2C)nc2cc(NC(=S)OCC3CC3)ccn12 [Example I-06, O-(Cyclopropylmethyl) {3-(ethylsulfonyl)-2-[3-methyl-6-(trifluoromethyl)-3H-imidazo[4,5-b]pyridin-2-yl]imidazo[1,2-a]pyridin-7-yl}carbamothioate]
chromatographic logP [1]: 3.76
pest or weed control at 100 g/ha ([4]; in Brassica rapa): 100%
pest or weed control at 100 g/ha ([6]; in Zea mays): 100%
pest or weed control at 4 ppm [3]: 100%

Compound: CCS(=O)(=O)c1c(-c2nc3cc(SC(F)(F)F)cnc3n2C)nc2cc(NC(=O)C3CC3)ccn12 [Example I-13]
pest or weed control at 100 g/ha [4, 12]: 100%
pest or weed control at 100 ppm ([5]; 100 ppm, after 2 days): 100%
pest or weed control at 100 g/ha [2, 10]: 90%
pest or weed control at 100 g/ha [6, 13]: 100%
pest or weed control at 100 ppm [7, 11]: 100%
efficacy [8]: 100%
pest or weed control at 4 ppm ([3]; 4 ppm, after 5 days): 100%

chromatographic logP [1, 9]: 3.3
Compound: CCS(=O)(=O)c1c(-c2nc3cc(C(F)(F)F)cnc3n2C)nc2cc(Br)ccn12 [2-[7-Bromo-3-(ethylsulfonyl)imidazo[1,2-a]pyridin-2-yl]-3-methyl-6-(trifluoromethyl)-3H-imidazo[4,5-b]pyridine]

chromatographic logP [1, 9]: 2.28
Compound: CCS(=O)(=O)c1c(-c2nc3cc(C(F)(F)F)cnc3n2C)nc2cc(NC(C)=O)ccn12 [N-{3-(Ethylsulfonyl)-2-[3-methyl-6-(trifluoromethyl)-3H-imidazo[4,5-b]pyridin-2-yl]imidazo[1,2-a]pyridin-7-yl}acetamide]

Compound: CCS(=O)(=O)c1c(-c2nc3cc(OC(F)(F)F)cnc3n2C)nc2cc(C3(C#N)CC3)ccn12 [Example I-29]
pest or weed control at 100 g/ha [4, 12]: 100%
pest or weed control at 100 g/ha [2, 10]: 90%
pest or weed control at 100 g/ha [6, 13]: 100%

Compound: CCS(=O)(=O)c1c(-c2nc3cc(C(F)(F)F)nnc3n2C)nc2cc(NS(=O)(=O)C3CC3)ccn12 [Example I-26]
pest or weed control at 100 g/ha [2, 10]: 100%
